The source of these data is ChEMBL document CHEMBL5308541, “MAIP: An Open-Source Tool to Enrich High-Throughput Screening Output and Identify Novel, Druglike Molecules with Antimalarial Activity” (ACS Med Chem Lett, 2023).

A value given as a limit tells only on which side of the number the result lay.

The subject of data set [1] is Plasmodium falciparum. Briefly: Hit confirmation in dose-response curve in NF54 nanoGlo assay, at 72h. It counts as functional, organism-based, Erythrocyte. Details: timepoint 72 hour. Particulars: Plasmodium falciparum, NF54, Erythrocyte, 72 h.
The test system of data set [2] is Plasmodium falciparum. As to the kind of experiment: Hit confirmation in dose-response curve in NF54 pLDH assay, at 72h. The format is functional, organism-based, Erythrocyte. Details: timepoint 72 hour. Particulars: Plasmodium falciparum, NF54, Erythrocyte, 72 h.
Data set [3] relates to Plasmodium falciparum. As to the kind of experiment: Hit confirmation in dose-response curve in Dd2 pLDH assay, at 72h. It counts as functional, organism-based, Erythrocyte. Set-up: timepoint 72 hour. The note with it: Plasmodium falciparum, Dd2, Erythrocyte, 72 h.
Data set [4] concerns Plasmodium falciparum. Briefly: Hit confirmation in dose-response curve in NF54 nanoGlo assay, at 12h. Set-up: timepoint 12 hour. The note with it: Plasmodium falciparum, NF54, Erythrocyte, 12 h. The format is functional, organism-based, Erythrocyte.
Data set [5] in a line: Hit confirmation in dose-response curve in HepG2 cytotoxicity assay, at 72h. It counts as toxicity, cell-based, Homo sapiens. Set-up: timepoint 72 hour. Particulars: human, HepG2 cells.

On to `Cc1ccc2[nH]cc(-c3cc(N4CCOCC4)nc(N)n3)c2c1`, for which the IC50 – broadly, the concentration needed to halve the response being measured – is 5.62 µM in data set [1], 7.59 µM in data set [2], 7.08 µM in data set [3] and 9.77 µM in data set [4]. Further, in data set [5], the IC50 at 72 h is greater than 10 µM.
In the case of `OC[C@H](CNCc1cc2ccc(F)cc2[nH]1)c1ccccc1Cl`, the IC50 in data set [1] turned out to be 2.34 µM; in data set [2], 3.72 µM; in data set [3], 3.31 µM; in data set [4], 3.98 µM. Also, the half-inhibitory concentration (IC50) at 72 h in data set [5] is greater than 10 µM.
With `Cc1cc(NC[C@H](O)COc2ccc(F)cc2)nc2ccccc12`, the IC50 came to 2.19 µM in data set [1], 6.92 µM in data set [2], 4.07 µM in data set [3] and 4.17 µM in data set [4]. The IC50 at 72 h in data set [5] is greater than 10 µM.
With `Cc1nc(N2CCN(C)CC2)cc(N2CCN(S(=O)(=O)c3ccccc3C(F)(F)F)CC2)n1`, the IC50 turned out to be 1.23 µM in data set [1], 6.61 µM in data set [2], 4.37 µM in data set [3] and 0.977 µM in data set [4]. Besides, in data set [5], the IC50 at 72 h is greater than 10 µM.
In the same order, the values of `Cc1ccc2nc(-c3cccc(NC(=O)c4ccc(OC(F)(F)F)c(Cl)c4)c3)[nH]c2n1` are 3.31 µM, 6.46 µM, 4.37 µM, greater than 10 µM and greater than 10 µM.
In the case of `CCc1oc2ccccc2c1CNC[C@H](O)c1ccc(Cl)cc1`, the IC50 is 0.513 µM in data set [1], 0.977 µM in data set [2], 0.955 µM in data set [3] and 0.776 µM in data set [4]. The compound further came in with a half-maximal inhibitory concentration (IC50) at 72 h in data set [5] greater than 10 µM.
For `CN(C)CCN1CCC(NC2CCC(O)(c3cccc(Cl)c3)CC2)CC1` (stereo not given), in that order: 5.01 µM, 4.47 µM, 3.72 µM, greater than 10 µM and greater than 10 µM.
For the compound `CCN1CCC(N2CCC(C(=O)NCCc3ccc(OC(F)(F)F)cc3)CC2)CC1`, the IC50 in data set [1] is 3.31 µM; in data set [2], 3.8 µM; in data set [3], 3.31 µM; in data set [4], 6.76 µM. For the same compound, the IC50 at 72 h in data set [5] is greater than 10 µM.
Take `COCCCN1CCC(Nc2ncnc3cc(C)c(C)cc23)CC1`: the IC50 in data set [1] stood at 1.17 µM; in data set [2], 1.7 µM; in data set [3], 1.17 µM; in data set [4], 2.04 µM. The compound also showed an IC50 at 72 h in data set [5] greater than 10 µM.
On to `N[C@H]1CC[C@@H](NC2CCN(c3ccc(F)c(F)c3)CC2)CC1`, for which the IC50 in data set [1] worked out at 2.82 µM; in data set [2], 3.55 µM; in data set [3], 3.31 µM; in data set [4], 9.55 µM. This compound showed a concentration for half-maximal inhibition (IC50) at 72 h in data set [5] of 7.76 µM.
Consider `O=C(NCCNc1ccnc2ccncc12)c1ccc(C(F)(F)F)cc1`, for which the IC50 in data set [1] is 3.24 µM; in data set [2], 5.75 µM; in data set [3], 5.37 µM; in data set [4] it was greater than 10 µM. Moreover, the IC50 at 72 h in data set [5] was greater than 10 µM.
For `CN(C)Cc1cccc(CCNCc2csc(-c3ccc(C(F)(F)F)cc3)n2)c1`, the IC50 in data set [1] turned out to be 2.63 µM; in data set [2], 3.47 µM; in data set [3], 2.69 µM; in data set [4] it was 4.79 µM. Moreover, the IC50 at 72 h in data set [5] stood at 7.76 µM.
Regarding `O[C@H](COc1ccccc1CNCc1cc(-c2ccccc2)[nH]n1)CN1CCCCC1`, the IC50 in data set [1] came out at 3.02 µM; in data set [2] it was 3.98 µM; in data set [3], 3.89 µM; in data set [4], 7.76 µM. This compound also displayed an IC50 at 72 h in data set [5] greater than 10 µM.
`Cc1ccc2c(-c3ccccc3CN3CCNCC3)cccc2n1`: the IC50 was 7.24 µM in data set [1], greater than 10 µM in data set [2], greater than 10 µM in data set [3] and greater than 10 µM in data set [4]. In data set [5], this compound had an IC50 at 72 h greater than 10 µM.
Take `Cc1ocnc1CNC[C@H](O)c1ccc(Cl)c(Cl)c1`: the IC50 came to 2.14 µM in data set [1], 4.27 µM in data set [2], 3.02 µM in data set [3] and 3.31 µM in data set [4]. The half-maximal inhibitory concentration (IC50) at 72 h in data set [5] was greater than 10 µM.
Regarding `O=C(Nc1cnc2c(c1)COCC2)c1cc2c(OC(F)(F)F)cccc2[nH]1`, the IC50 in data set [1] was found to be 0.676 µM; in data set [2] it was 1.55 µM; in data set [3], 2.19 µM; in data set [4] it was 0.955 µM. For the same compound, the IC50 at 72 h in data set [5] is greater than 10 µM.
In the same order, the values of `CN(C[C@H](O)COc1cccc(CNCCCOc2cccnc2)c1)C1CCCCC1` are 5.13 µM, 6.17 µM, 6.92 µM, greater than 10 µM and greater than 10 µM.
As to `COc1ccc2c(N3CC[C@H](CN4CCCC4)C3)ccnc2c1`, the IC50 came out at 0.525 µM in data set [1], 0.589 µM in data set [2], 0.417 µM in data set [3] and 0.794 µM in data set [4]. The same compound displayed an IC50 at 72 h in data set [5] greater than 10 µM.
For `CN([C@@H](c1ccccc1)c1ccccc1Br)S(=O)(=O)c1c[nH]c2ncccc12`, in that order: 7.08 µM, 9.77 µM, 7.41 µM, greater than 10 µM and greater than 10 µM.
